Format in all cases: cell-based
Assay [1] concerns the target T1, human FPR2 (Homo sapiens, UniProt P25090).
T1 construct: expressed in transfected cells
T1 sequence (P25090 1-351): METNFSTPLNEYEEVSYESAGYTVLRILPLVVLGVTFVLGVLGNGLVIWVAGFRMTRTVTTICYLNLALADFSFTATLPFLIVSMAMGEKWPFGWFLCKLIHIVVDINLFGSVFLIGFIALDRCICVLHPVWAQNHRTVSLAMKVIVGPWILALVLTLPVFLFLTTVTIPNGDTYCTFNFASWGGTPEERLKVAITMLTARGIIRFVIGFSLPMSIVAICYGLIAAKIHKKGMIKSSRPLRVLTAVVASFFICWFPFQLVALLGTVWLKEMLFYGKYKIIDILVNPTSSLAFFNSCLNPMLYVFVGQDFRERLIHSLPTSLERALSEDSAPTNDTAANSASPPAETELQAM
The assay can be described thus: ERK1/2 phosphorylation, CHO cells expressing FPR2. The conditions noted are these: 5 min, mean ± SEM; for Emax: normalized to 10% FBS; for EC50: read-out: ERK1/2 phosphorylation FPR2 pEC50 (converted). As to the method: (§1) FlpIn Chinese hamster ovary (CHO) cells stably expressing either the human FPR1 or FPR2. Both of the cell lines were cultured in Dulbecco’s modified eagle medium (DMEM), which contained 10% foetal bovine serum (FBS, JRH Biosciences) and 500 µg/mL of the antibiotic hygromycin-B (Invitrogen Inc). Cells were grown at 37 °C in a humidified incubator containing 5% CO2 as described previously. Cells were seeded into 96-well tissue culture plates (4 × 10^4 cells/well) and after 6–8 h, cells were washed with PBS twice (50 µL/well in each washing step) and then starved by incubating in 90 µL/well of serum-free DMEM overnight at 37 °C in 5% CO2 before assaying for ERK1/2 phosphorylation (pERK1/2) and intracellular Ca^2+ mobilization.
(§2) A time course was used to assess peak pERK1/2 phosphorylation for all the compounds. The positive control of 10% FBS, and serum-free DMEM as vehicle control. […] All the compounds were tested with time points taken at 0, 5, 7, 10, 20, 30.
(§3) For both the time course and concentration-response curves, the stimulation was terminated by the rapid removal of serum-free DMEM with agonists and adding 100 μL/well of SureFire lysis buffer. The detection step was performed according to the manufacturer’s instructions (AlphaScreen detection kit, PerkinElmer Life and Analytical Science)[49]. Data were normalized to the vehicle (serum-free DMEM) and the response elicited by 10% FBS, with nonlinear regression performed using GraphPad Prism 9.0.
(§4) Non-linear regression was performed using GraphPrism 9.0. […] Significance was determined using Student’s unpaired t test, with two-tailed p values of <0.05 considered statistically significant.

Assay [2] has as its target T1, human FPR2. The assay can be described thus: Calcium mobilization, CHO cells expressing FPR2. Conditions: mean ± SEM; for Emax: normalized to ATP 100 µM, read-out: [Ca2+]i mobilization FPR2 Emax; for EC50: read-out: [Ca2+]i mobilization FPR2 pEC50 (converted). As to the method:
as §1
(§5) For the calcium mobilization assay, the cells were plated and starved in the same manner as the pERK1/2 assay, before washing the cells once in HEPES buffered saline (HBS) solution [150 mM NaCl, 1.3 mM CaCl2, 5 mM KCl, 1 mM MgSO4.7H2O, 1.5 mM NaHCO3, 10 mM HEPES, and 10 mM D-glucose; pH 7.4]. Then the cells were incubated at 37 °C under 5% CO2 condition with HBS containing 0.5% (w/v) bovine serum albumin (BSA), 4 mM probenecid and 1 µM Fluo-8-AM (Abcam) for 1 h. FlexStation three plate reader (Molecular Devices) were used to determine Ca^2+ mobilization. The peak change in fluorescence signal was normalized to the vehicle (HBS solution) and the cellular response mediated by the positive control, adenosine triphosphate (ATP, 100 µM), and fitted with nonlinear regression curve in GraphPad Prism 9.0.
as §4
(In general: Calcium assays in cells follow changes in intracellular calcium, usually with a dye or a luminescent sensor.)

For assay [3], the target named is T2, human FPR1 (Homo sapiens, UniProt P21462).
T2 construct: expressed in transfected cells
T2 sequence (P21462 1-350): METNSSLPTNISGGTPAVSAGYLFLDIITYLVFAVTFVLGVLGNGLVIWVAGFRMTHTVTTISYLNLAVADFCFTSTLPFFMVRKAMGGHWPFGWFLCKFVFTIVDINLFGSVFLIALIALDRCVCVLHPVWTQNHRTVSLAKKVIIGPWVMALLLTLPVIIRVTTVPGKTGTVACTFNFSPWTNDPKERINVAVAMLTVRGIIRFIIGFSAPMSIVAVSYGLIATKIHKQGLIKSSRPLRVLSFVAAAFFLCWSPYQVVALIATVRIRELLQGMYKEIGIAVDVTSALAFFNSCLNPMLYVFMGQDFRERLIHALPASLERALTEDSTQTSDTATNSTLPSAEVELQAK
Briefly: Calcium mobilization, CHO cells expressing FPR1. The conditions noted are these: mean ± SEM; for Emax: normalized to ATP 100 µM, read-out: [Ca2+]i mobilization FPR1 Emax; for EC50: read-out: [Ca2+]i mobilization FPR1 pEC50 (converted). As to the method: as §1, §5, §4

Assay [4] deals with T2, human FPR1. Briefly: ERK1/2 phosphorylation, CHO cells expressing FPR1. Conditions: 5 min, mean ± SEM; for Emax: normalized to 10% FBS; for EC50: read-out: ERK1/2 phosphorylation FPR1 pEC50 (converted). As to the method:
as §1, §2, §3, §4

Assay [5] concerns pHrodo Red S. aureus BioParticles phagocytosed by human neutrophils. Briefly: Infection-on-a-chip phagocytosis (pHrodo fluorescence). The conditions noted are these: at 2 h. As to the method: For neutrophils used in microfluidic devices, de-identified fresh blood samples (10 mL) were purchased from Research Blood Components where blood samples were obtained from healthy volunteers aged ≥18 years who were not receiving immunosuppressant agents. Additionally, venous blood samples from healthy volunteers were collected by phlebotomy, after receipt of written informed consent, and under approval by the MGH Institutional Review Board (protocol 2008-P-002123). Neutrophils were isolated from whole blood using EasySep direct human neutrophil isolation kit (StemCell Technologies) as per the manufacturer’s instructions.
Use of this microfluidic device for monitoring migration of neutrophils and control of the S. aureus growth in cell culture medium has been outlined in detail previously. Briefly, microfluidic devices were primed with S. aureus (SH1000-GFP, 1 × 10^6/mL) in culture media (Iscove’s Modified Dulbecco’s Medium + 10% Fetal Bovine Serum) by loading the outer chamber and applying vacuum to draw bacteria into the inner chambers. The outer chamber was then washed by pushing 200 µL of media through the device using a pipette, and loaded with neutrophils (5.5 × 10^6/mL, stained with Hoechst 33342 dye, 10 min at 32 μM). Additionally, neutrophil phagocytosis was monitored by using pHrodo Red S. aureus BioParticles® (Life Technologies) in replace of live S. aureus cells. BioParticles were used at a final concentration of 1 × 10^7/mL, which gave 50–100 BioParticles within the microchamber. The concentration of cells were determined by hemocytometer.
Kinetics of neutrophil migration, S. aureus growth and phagocytosis was determined using imaging with an automated Nikon Eclipse TiE inverted wide-field microscope with stage control and perfect focus system run through the Nikon NIS element v4. The biochamber was maintained temperature at 37 °C and CO2 at 5% for the 8 h of the experiment, where images were captured every 5 min for each field of view (FOV), with at least 4 FOV captured per experimental condition. For each experimental condition at least 12 chambers were tracked for neutrophil migration using the FIJI[64] plugin Trackmate[65]. The percentage of neutrophils recruited into the chamber was determined relative to the total number of neutrophils in each FOV divided by the number of chambers visible. Data were averaged and the results from at least 3 donors plotted. The pHrodo or S. aureus GFP fluorescence within the microchamber was calculated by thresholding the image and measuring the area in FIJI[36]. Data were plotted using GraphPad Prism 8 software (GraphPad Software, San Diego, CA, USA).

The results in this text go back to publication PMC8546149, “Antibiotic-chemoattractants enhance neutrophil clearance of Staphylococcus aureus” (Nature Communications, 2021).

One may read the Emax as the maximal effect, on the per cent scale that the assay sets.

Non-standard residues stand in square brackets, D forms with d. Residues, ends and D or L forms follow the SMILES beside them. *: point of attachment. Cha = N[C@@H](CC1CCCCC1)C(=O)O; For = O=C*

With `CN[C@H](CC(C)C)C(=O)N[C@H]1C(=O)N[C@@H](CC(N)=O)C(=O)N[C@H]2C(=O)N[C@H]3C(=O)N[C@H](C(=O)N[C@H](C(=O)NCCCn4cc(C[C@H](NC(=O)CNC(=O)[C@H](Cc5ccccc5)NC(=O)[C@H](CC(C)C)NC(=O)[C@H](CCSC)NC=O)C(N)=O)nn4)c4cc(O)cc(O)c4-c4cc3ccc4O)[C@H](O)c3ccc(c(Cl)c3)Oc3cc2cc(c3O[C@@H]2O[C@H](CO)[C@@H](O)[C@H](O)[C@H]2O[C@H]2C[C@](C)(N)[C@H](O)[C@H](C)O2)Oc2ccc(cc2Cl)[C@H]1O` [C1, Van-C(fMLFG-Tz)], the Emax at human FPR2 [1] is 99 ± 9%; at human FPR2 [2] it was 45 ± 10%; at human FPR1 [3], 34 ± 8%; at human FPR1 [4], 77 ± 8%.
The like results for `CN[C@H](CC(C)C)C(=O)N[C@H]1C(=O)N[C@@H](CC(N)=O)C(=O)N[C@H]2C(=O)N[C@H]3C(=O)N[C@H](C(=O)N[C@H](C(=O)NCCCn4cc(C[C@H](NC(=O)CNC(=O)[C@H](Cc5ccccc5)NC(=O)[C@H](CC5CCCCC5)NC(=O)[C@H](CCSC)NC=O)C(N)=O)nn4)c4cc(O)cc(O)c4-c4cc3ccc4O)[C@H](O)c3ccc(c(Cl)c3)Oc3cc2cc(c3O[C@@H]2O[C@H](CO)[C@@H](O)[C@H](O)[C@H]2O[C@H]2C[C@](C)(N)[C@H](O)[C@H](C)O2)Oc2ccc(cc2Cl)[C@H]1O` [C11, Van-C(fM-Cha-FG-Tz)] were, in that order, 84 ± 4%, 27 ± 3%, 24 ± 3% and 83 ± 3%.
Turning to `CSCC[C@H](NC=O)C(=O)N[C@@H](CC(C)C)C(=O)N[C@@H](Cc1ccccc1)C(=O)NCC(N)=O` [FP1, fMLFG-NH2] (For-MLFG-NH2), the EC50 at human FPR2 [1] is 2880 nM; at human FPR2 [2], 1350 nM; at human FPR1 [3] it was 6.76 nM; at human FPR1 [4], 2.51 nM. Besides, the maximal response (Emax) turned out to be 82 ± 7% on human FPR2 [1], 34 ± 7% at human FPR2 [2], 27 ± 4% at human FPR1 [3] and 86 ± 8% at human FPR1 [4].
`CSCC[C@H](NC=O)C(=O)N[C@@H](CC1CCCCC1)C(=O)N[C@@H](Cc1ccccc1)C(=O)NCC(N)=O` [FP11, fM-Cha-FG-NH2] (For-M[Cha]FG-NH2): the EC50 at human FPR2 [1] is 1860 nM; at human FPR2 [2], 1320 nM; at human FPR1 [3] it was 9.55 nM; on human FPR1 [4], 2.19 nM. Also, the Emax on human FPR2 [1] amounted to 81 ± 9%; at human FPR2 [2] it was 43 ± 13%; on human FPR1 [3], 27 ± 4%; on human FPR1 [4], 90 ± 8%.
For the molecule `CSCC[C@H](NC=O)C(=O)N[C@@H](CC(C)C)C(=O)N[C@@H](Cc1ccccc1)C(=O)O` [fMLF, N-formyl-Met-Leu-Phe, reference compound], the Emax on human FPR2 [1] worked out at 99 ± 27%; on human FPR2 [2], 18 ± 4%.
With Van-C(fML-Tyr-G-Tz) [C19], the “area of pHrodo fluorescence per neutrophil recruited into the microchamber” value in assay [5] (donor 2) stood at 3.5; in assay [5] (donor column 1), 9.2; in assay [5] (donor column 3) it was 7.8; in assay [5] (donor column 4) it was 2.6.
The like results for Van-C(fMLF-Leu-Tz) [C18] were, in that order, 4.4, 7.9, 2.1 and 1.8.
The like results for fML-Tyr-G-NH2 [FP12] were, in that order, 4.1, 4.7, 1.5 and 2.8.
In the same order, the values of fMLF-Leu-NH2 [FP19] are 7.8, 6.5, 1.5 and 2.3.
